Literature values, collected in patent publication US20250333447A1, “CHIMERIC SMALL MOLECULES FOR LABELING PROTEINS WITH IMMUNOGENIC MOIETIES AND METHODS OF USE THEREOF” (The Brigham and Women's Hospital, Inc., priority 2022, published 2025).
pIC50, pKi: −log10 of the molar value.

Tests used:
HSP90 = settings: cell free assay
PSMA = PSMA (Homo sapiens, UniProt Q04609)
PSMA, sequence (Q04609 whole entry, species assumed): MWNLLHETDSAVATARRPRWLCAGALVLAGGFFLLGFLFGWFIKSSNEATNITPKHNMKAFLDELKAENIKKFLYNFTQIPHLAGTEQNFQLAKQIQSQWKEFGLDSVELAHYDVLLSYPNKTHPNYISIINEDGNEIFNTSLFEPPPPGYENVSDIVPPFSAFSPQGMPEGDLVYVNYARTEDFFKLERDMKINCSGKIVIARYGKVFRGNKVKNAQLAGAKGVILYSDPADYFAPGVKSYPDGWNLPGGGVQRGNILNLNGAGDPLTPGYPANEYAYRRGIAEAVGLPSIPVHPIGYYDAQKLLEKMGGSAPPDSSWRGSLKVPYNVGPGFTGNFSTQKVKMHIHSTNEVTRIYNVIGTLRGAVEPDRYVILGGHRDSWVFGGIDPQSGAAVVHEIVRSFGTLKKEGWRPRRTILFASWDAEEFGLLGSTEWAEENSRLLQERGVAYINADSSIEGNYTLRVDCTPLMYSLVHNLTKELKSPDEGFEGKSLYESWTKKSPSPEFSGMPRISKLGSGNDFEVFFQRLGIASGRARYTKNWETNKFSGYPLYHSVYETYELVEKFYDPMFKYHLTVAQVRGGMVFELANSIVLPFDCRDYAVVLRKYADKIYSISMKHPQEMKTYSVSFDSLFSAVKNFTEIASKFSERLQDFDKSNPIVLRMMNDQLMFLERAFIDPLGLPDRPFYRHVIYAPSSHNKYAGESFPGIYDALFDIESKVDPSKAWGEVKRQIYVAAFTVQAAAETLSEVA

pKi (PSMA) | SMILES | pIC50 (HSP90)
– | CO[C@H]1/C=C\C=C(/C)C(=O)NC2=CC(=O)C(NCCN(C)C)=C(C[C@@H](C)C[C@H](OC)[C@H](O)[C@@H](C)/C=C(\C)[C@@H]1OC(N)=O)C2=O [Alvespimycin] | 7.21
8.10 | O=C(O)CC[C@H](NC(=O)N[C@@H](CCC(=O)O)C(=O)O)C(=O)O [DUPA] | –
